In PubChem BioAssay AID2060498 (Molecular Pharmacology Branch, DTP, NCI, 2025):

Test system: 171881-019-R-J1-PDC tumor spheroids, viability
Experiment: Anticancer human tumor 171881-019-R-J1-PDC patient-derived invasive breast carcinoma cell line growth inhibition [GQUAD]
Details: spheroids with HUVEC and MSC; for IC50: curve of first compound; for viability, T/C: stronger effect = lower value; active means viability on the fitted dose curve at most 10% of control; inactive means the rest
How it was run: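 Tumor cells were grown as complex spheroids with HUVEC endothelial cells and mesenchymal stem cells as stroma. G-quadruplex stabilizers were combined with targeted agents over half-log dilutions from near the clinical Cmax, or from 10 microM.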
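Further: spheroids exposed to compounds for 7 days.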
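Wherever viability, T/C is given: 100% = DMSO vehicle control viability.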

CC(C)n1c(=O)n(C)c2cnc3cc(F)c(-c4ccc(OCCCN5CCCCC5)nc4)cc3c21 + Cc1cnc(CNC(=O)c2c(=O)c3ccc(N4CCCN(C)CC4)nc3n3c2sc2ccccc23)cn1
inactive: viability, T/C (second compound 0.0316 µM, first compound 0.0316 µM) 63.7% | viability, T/C (second compound 0.0316 µM, first compound 0.1 µM) 56.6% | viability, T/C (second compound 0.0316 µM, first compound 0.316 µM) 59.6% | viability, T/C (second compound 0.0316 µM, first compound 1 µM) 48.2% | viability, T/C (second compound 0.0316 µM, first compound 3.16 µM) 39.1% | viability, T/C (second compound 0.0316 µM, first compound 10 µM) 16.1% | viability, T/C (second compound 0.1 µM, first compound 0.0316 µM) 62.4% | viability, T/C (second compound 0.1 µM, first compound 0.1 µM) 62.2% | viability, T/C (second compound 0.1 µM, first compound 0.316 µM) 58.6% | viability, T/C (second compound 0.1 µM, first compound 1 µM) 55.9% | viability, T/C (second compound 0.1 µM, first compound 3.16 µM) 43.8% | viability, T/C (second compound 0.1 µM, first compound 10 µM) 17.4% | viability, T/C (second compound 0.316 µM, first compound 0.0316 µM) 66.6% | viability, T/C (second compound 0.316 µM, first compound 0.1 µM) 65% | viability, T/C (second compound 0.316 µM, first compound 0.316 µM) 60.5% | viability, T/C (second compound 0.316 µM, first compound 1 µM) 58.9% | viability, T/C (second compound 0.316 µM, first compound 3.16 µM) 43.3% | viability, T/C (second compound 0.316 µM, first compound 10 µM) 20.8% | viability, T/C (second compound 1 µM, first compound 0.0316 µM) 66.7% | viability, T/C (second compound 1 µM, first compound 0.1 µM) 63.5% | viability, T/C (second compound 1 µM, first compound 0.316 µM) 66.5% | viability, T/C (second compound 1 µM, first compound 1 µM) 57.7% | viability, T/C (second compound 1 µM, first compound 3.16 µM) 53.2% | viability, T/C (second compound 1 µM, first compound 10 µM) 25.4% | viability, T/C (second compound 3.16 µM, first compound 0.0316 µM) 62.1% | viability, T/C (second compound 3.16 µM, first compound 0.1 µM) 63% | viability, T/C (second compound 3.16 µM, first compound 0.316 µM) 66.5% | viability, T/C (second compound 3.16 µM, first compound 1 µM) 60.7% | viability, T/C (second compound 3.16 µM, first compound 3.16 µM) 53.1% | viability, T/C (second compound 3.16 µM, first compound 10 µM) 28.2% | viability, T/C (second compound 10 µM, first compound 0.0316 µM) 61.8% | viability, T/C (second compound 10 µM, first compound 0.1 µM) 64.2% | viability, T/C (second compound 10 µM, first compound 0.316 µM) 61.7% | viability, T/C (second compound 10 µM, first compound 1 µM) 58.7% | viability, T/C (second compound 10 µM, first compound 3.16 µM) 50.4% | viability, T/C (second compound 10 µM, first compound 10 µM) 25.3%
1020 nM: IC50 (second compound 0.0316 µM)
3710 nM: IC50 (second compound 3.16 µM)
1720 nM: IC50 (second compound 0.1 µM)
3200 nM: IC50 (second compound 10 µM)
3420 nM: IC50 (second compound 1 µM)
1860 nM: IC50 (second compound 0.316 µM)
